Inhibition data for 34 compounds are collected here from patent publication US10538516B2, “Oxadiazole derivative and pharmaceutical containing same” (National Center for Geriatrics and Gerontology, priority 2015, dated 2020).

The target in this test is T1, GAβ-dependent amyloid fibril formation (Human Aβ1-40 + GM1-containing liposome) (Homo sapiens, UniProt P05067).
T1 construct: Human Aβ1-40 (cat. #4307-v, prepared by Peptide Institute); purchased Peptide Institute 4307-v
Put plainly: Thioflavin T (ThT) assay of GAβ-dependent amyloid fibril formation (Aβ1-40 with GM1-containing liposome). The test is classed as biochemical. A digest of the protocol: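 Human Aβ1-40 (75 μM stock) pre-incubated 10 min at room temperature with compound (75 or 15 μM solution), then GM1-containing cholesterol/sphingomyelin liposome added and incubated 37° C, 18 hours. Fibrils quantified by ThT fluorescence (ex 430/em 490 nm, pH 8.5 glycine buffer); inhibition as ratio to compound-free control.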

[1] abbreviates: @25 μM, read-out: ThT Inhibitory activity (% inhibition).
Setting [2] is: inhibition rate against amyloid fibril formation, final concentration of the compound 25 μM, read-out: Inhibitory activity ABC evaluation.

Read-outs that look alike come from different tables or passages of the source.

T1 sequence (P05067 672-711 limits assumed): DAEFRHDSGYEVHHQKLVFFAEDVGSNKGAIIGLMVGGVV

Take `O=C(N[C@@H](CO)c1nc(-c2ccc(F)cc2)no1)c1ccc(F)cc1` [Compound 172, 4-fluoro-N-[(1S)-1-[3-(4-fluorophenyl)-1,2,4-oxadiazol-5-yl]-2-hydroxyethyl] benzamide]: the inhibition at 25 µM reads like this: under setting [1], 91%; under setting [2], more than 80%.
In the case of `O=C(/C=C/c1ccc(F)cc1)N[C@@H](CO)c1nc(-c2ccc(C(F)(F)F)cc2)no1` [Compound 208, (2E)-3-(4-fluorophenyl)-N-[(1S)-2-hydroxy-1-{3-[4-(trifluoromethyl)phenyl]-1,2,4-oxadiazol-5-yl}ethyl]prop-2-enamide], the inhibition at 25 µM under setting [2] lay in the range of 40 to 80%.
In the case of `O=C(N[C@@H](CO)c1nc(-c2ccc(C(F)(F)F)s2)no1)c1ccc(F)cc1` [Compound 210, 4-fluoro-N-[(1S)-2-hydroxy-1-{3-[5-(trifluoromethyl)thiophen-2-yl]-1,2,4-oxadiazol-5-yl}ethyl] benzamide], the inhibition at 25 µM under setting [2] was more than 80%.
For the compound `Nc1[nH]cnc1-c1noc([C@H](CO)NC(=O)c2ccc(F)cc2)n1` [Compound 258, N-[(1S)-1-[3-(5-amino-1H-imidazol-4-yl)-1,2,4-oxadiazol-5-yl]-2-hydroxyethyl]-4-fluorobenzamide], the inhibition at 25 µM under setting [2] was 40 to 80%.
On the same count and under the same terms, the value for `O=C(N[C@@H](CO)c1nc(-c2ccc(C(F)(F)F)cc2)no1)c1cc(F)cc(F)c1` [Compound 196, 3,5-difluoro-N-[(1S)-2-hydroxy-1-{3-[4-(trifluoromethyl)phenyl]-1,2,4-oxadiazol-5-yl}ethyl]benzamide] was more than 80%.
In the case of `CC(=O)c1ccc(-c2noc([C@H](CO)NC(=O)c3ccccc3)n2)cc1` [Compound 153, N-[(1S)-1-[3-(4-acetylphenyl)-1,2,4-oxadiazol-5-yl]-2-hydroxyethyl] benzamide], the inhibition at 25 µM under setting [1] stood at 76% and the inhibition at 25 µM under setting [2] was in the range of 40 to 80%.
In the same order, the values of `COc1ccc2nc(-c3noc([C@H](CO)NC(=O)c4ccc(F)cc4)n3)sc2c1` [Compound 235, 4-fluoro-N-[(1S)-2-hydroxy-1-[3-(6-methoxy-1,3-benzothiazol-2-yl)-1,2,4-oxadiazol-5-yl]ethyl]benzamide] are 63% and 40 to 80%.
Consider `CCCN(Cc1cccc(Cl)c1)C(=O)CCc1nc(-c2ccc(OC)cc2)no1` [Compound 9, N-(3-chlorobenzyl)-3-{3-(4-methoxyphenyl)-1,2,4-oxadiazol-5-yl}-N-propylpropanamide], for which the inhibition at 25 µM under setting [2] was 40 to 80%.
With `O=C(N[C@@H](CO)c1nc(-c2ccc(F)cc2Cl)no1)c1ccc(F)cc1` [Compound 219, N-[(1S)-1-[3-(2-chloro-4-fluorophenyl)-1,2,4-oxadiazol-5-yl]-2-hydroxyethyl]-4-fluorobenzamide], under setting [2], the inhibition at 25 µM was less than 40%.
With `O=S(=O)(N[C@@H](CO)c1nc(-c2ccc(OC(F)(F)F)cc2)no1)c1cccc(Cl)c1` [Compound 91, (S)-3-chloro-N-(2-hydroxy-1-[3-{4-(trifluoromethoxy)phenyl}-1,2,4-oxadiazol-5-yl]ethyl)benzenesulfonamide], the inhibition at 25 µM under setting [2] fell in the range of 40 to 80%.
Same read-out and setting: as for `CCN(CC)CCOc1ccc(C(=O)N[C@@H](CO)c2nc(-c3ccc(OC(F)(F)F)cc3)no2)cc1` [Compound 171, 4-[2-(diethylamino)ethoxy]-N-[(1S)-2-hydroxy-1-{3-[4-(trifluoromethoxy)phenyl]-1,2,4-oxadiazol-5-yl}ethyl] benzamide], the figure is less than 40%; as for `O=C(N[C@@H](CO)c1nc(-c2cccc(C(F)(F)F)c2)no1)c1ccc(N2CCOCC2)cc1` [Compound 220], more than 80%.
With `O=C(N[C@@H](CO)c1nc(-c2cccc(C(F)(F)F)c2)no1)c1ccc(F)c(Cl)c1` [Compound 242, 3-chloro-4-fluoro-N-[(1S)-2-hydroxy-1-{3-[3-(trifluoromethyl)phenyl]-1,2,4-oxadiazol-5-yl}ethyl]benzamide], the inhibition at 25 µM was 59% under setting [1] and 40 to 80% under setting [2].
For `O=C(N[C@H](CO)c1nc(-c2ccc(C(F)(F)F)cc2)no1)c1ccccc1` [Compound 213, N-[(1R)-2-hydroxy-1-{3-[4-(trifluoromethyl)phenyl]-1,2,4-oxadiazol-5-yl}ethyl]benzamide], the inhibition at 25 µM under setting [2] was less than 40%.
The same measure, in the same setting: as for `O=C1CC(c2nc(-c3ccc(O)c(F)c3)no2)CN1c1ccc(Cl)cc1` (centres unmarked) [Compound 74, 1-(4-chloro-phenyl)-4-{3-(3-fluoro-4-hydroxyphenyl)-1,2,4-oxadiazol-5-yl}pyrrolidin-2-one], the figure is 40 to 80%; as for `CCOCCOc1ccc(C(=O)N[C@@H](CO)c2nc(-c3ccc(C(F)(F)F)cc3)no2)cc1` [Compound 170], 40 to 80%.
Take `O=C(N[C@@H](CO)c1nc(-c2ccc(C(F)F)cc2)no1)c1ccc(Cl)cc1` [Compound 167]: the inhibition at 25 µM was 98% under setting [1] and more than 80% under setting [2].
For `COc1ccc(-c2nnc([C@H](CO)NC(=O)c3ccc(Cl)cc3)o2)cc1F` [Compound 113, (S)-4-chloro-N-(1-(5-(3-fluoro-4-methoxy-phenyl)-1,3,4-oxadiazol-2-yl)-2-hydroxy-ethyl)benzamide], under setting [2], the inhibition at 25 µM is less than 40%.
In the case of `O=C(N[C@@H](CO)c1nc(-c2cnc3ccccc3c2)no1)c1ccc(F)cc1` [Compound 173, 4-fluoro-N-[(1S)-2-hydroxy-1-[3-(quinolin-3-yl)-1,2,4-oxadiazol-5-yl]ethyl] benzamide], the inhibition at 25 µM under setting [2] was less than 40%.
Consider `O=C(c1ccc(Cl)cc1)N1CC(O)CC1c1nc(-c2ccc(OC(F)(F)F)cc2)no1` (stereo in doubt) [Compound 85, (4-chlorophenyl) ((2S,4S)-4-hydroxy-2-[3-{4-(trifluoromethoxy)phenyl}-1,2,4-oxadiazol-5-yl]pyrrolidin-1-yl)methanone], for which the inhibition at 25 µM under setting [2] lay in the range of 40 to 80%.
For `O=C(N[C@@H](CO)c1nc(-c2ccc(O)cc2F)no1)c1ccccc1` [Compound 142, N-[(1S)-1-[3-(2-fluoro-4-hydroxyphenyl)-1,2,4-oxadiazol-5-yl]-2-hydroxyethyl]benzamide], the inhibition at 25 µM under setting [2] was 40 to 80%.
Take `O=C1C[C@@H](c2nc(-c3ccc(OC(F)(F)F)cc3)no2)N(C(=O)c2ccc(Cl)cc2)C1` [Compound 57, (S)-1-(4-chlorobenzoyl)-5-{3-[4-(trifluoromethoxy)phenyl]-1,2,4-oxadiazol-5-yl}pyrrolidin-3-one]: the inhibition at 25 µM under setting [2] was less than 40%.
On to `O=C(N[C@H](CO)c1nc(-c2ccc(C(F)(F)F)cc2)no1)c1ccc(Cl)cc1` [Compound 214, 4-chloro-N-[(1R)-2-hydroxy-1-{3-[4-(trifluoromethyl)phenyl]-1,2,4-oxadiazol-5-yl}ethyl]benzamide], for which the inhibition at 25 µM under setting [2] lay within 40 to 80%.
Same read-out and setting: as for `CN(C(=O)c1ccc(Cl)cc1)C(C)(C)c1nc(-c2ccc(OC(F)(F)F)cc2)no1` [Compound 21, 4-chloro-N-methyl-N-(2-{3-[4-(trifluoromethoxy)phenyl]-1,2,4-oxadiazole-5-yl}propan-2-yl)benzamide], the figure is less than 40%.
For `O=C(NC(CO)c1nc(-c2ccc(O)cc2)no1)c1ccc(Cl)cc1` (centres unmarked) [Compound 78, 4-chloro-N-{2-hydroxy-1-[3-(4-hydroxyphenyl)-1,2,4-oxadiazol-5-yl]ethyl}benzamide], for the setting “@5 μM, read-out: ThT Inhibitory activity (% inhibition)”, the inhibition at 5 µM amounted to 52%. The inhibition at 25 µM is 89% under setting [1] and more than 80% under setting [2].
Turning to `O=C(N[C@@H](CO)c1nc(-c2c[nH]c3cc(F)ccc23)no1)c1ccc(F)cc1` [Compound 260, 4-fluoro-N-[(1S)-1-[3-(6-fluoro-1H-indol-3-yl)-1,2,4-oxadiazol-5-yl]-2-hydroxyethyl] benzamide], the inhibition at 25 µM under setting [2] is 40 to 80%.
Take `CCOCCOc1ccc(C(=O)N[C@@H](CO)c2nc(-c3ccc(OC(F)(F)F)cc3)no2)cc1` [Compound 169, 4-(2-ethoxyethoxy)-N-[(1S)-2-hydroxy-1-{3-[4-(trifluoromethoxy)phenyl]-1,2,4-oxadiazol-5-yl}ethyl] benzamide]: the inhibition at 25 µM under setting [2] is 40 to 80%.
As to `O=C(CCc1nc(-c2ccc(OC(F)(F)F)cc2)no1)N1CCCc2ccccc21` [Compound 12, 1-{3,4-dihydroquinolin-1(2H)-yl}-3-[3-{4-(trifluoromethoxy)phenyl}-1,2,4-oxadiazol-5-yl]propan-1-one], under setting [2], the inhibition at 25 µM lay in the range of 40 to 80%.
On to `CCN(C)C(=O)Oc1ccc(-c2noc([C@H](CO)NC(=O)c3ccccc3)n2)cc1` [Compound 159], for which the inhibition at 25 µM (read-out: Inhibitory activity ABC evaluation) is less than 40%.
As for `COc1ccc(-c2noc([C@@H](N)Cc3c[nH]c4ccccc34)n2)cc1` [Compound 18, (S)-2-(1H-indol-3-yl)-1-{3-(4-methoxyphenyl)-1,2,4-oxadiazol-5-yl}ethan-1-amine], the inhibition at 25 µM reads like this: under setting [1], 86%; under setting [2], more than 80%.
On to `O=C(O)C[C@H](NC(=O)c1ccc(Cl)cc1)c1nc(-c2ccc(OC(F)(F)F)cc2)no1` [Compound 81, (S)-3-(4-chlorobenzamide)-3-{3-[4-(trifluoromethoxy)phenyl]-1,2,4-oxadiazol-5-yl}propanoic acid], for which, under setting [2], the inhibition at 25 µM is 40 to 80%.
Consider `O=C(N[C@@H](CO)c1nc(-c2ccc(OC(F)(F)F)cc2)no1)c1ccc(Cl)cc1` [Compound 39, (S)-4-chloro-N-(2-hydroxy-1-{3-[4-(trifluoromethoxy)phenyl]-1,2,4-oxadiazol-5-yl}ethyl)benzamide], for which the inhibition at 25 µM is 98% under setting [1]; more than 80% (final concentration of the compound 25 μM, ratio of ThT fluorescence intensity with/without compound, 37° C. for 18 hours, read-out: inhibition rate against amyloid fibril formation (inhibitory activity on a scale of A to C)); more than 80% under setting [2].
As to `O=C(N[C@@H](CO)c1nc(-c2cn(CCO)c3ccccc23)no1)c1ccc(F)cc1` [Compound 264], the inhibition at 25 µM under setting [2] was 40 to 80%.
For the compound `O=C(N[C@@H](CO)c1nc(-c2c[nH]c3ccc(F)cc23)no1)c1ccc(F)cc1` [Compound 234], the inhibition at 25 µM under setting [2] is 40 to 80%.
